Laboratory results taken from ChEMBL document CHEMBL3525952, “A Baeyer-Villiger oxidation specifically catalyzed by human flavin-containing monooxygenase 5” (Drug Metab Dispos, 2011).

Key:
[1] = Retention time of the compound by HPLC analysis; format: physicochemical
[2] = molecular target: T1, Flavin-containing monooxygenase 5 (Homo sapiens, UniProt P49326); test: Drug metabolism assessed as human recombinant FMO5-mediated compound formation from 50 uM E7016 in presence of dog liver cytosolic fractions after 60 mins by LC-MS/MS method; format: ADME, tissue-based; conditions: recombinant enzyme, 1 h
T1 sequence (P49326 whole entry): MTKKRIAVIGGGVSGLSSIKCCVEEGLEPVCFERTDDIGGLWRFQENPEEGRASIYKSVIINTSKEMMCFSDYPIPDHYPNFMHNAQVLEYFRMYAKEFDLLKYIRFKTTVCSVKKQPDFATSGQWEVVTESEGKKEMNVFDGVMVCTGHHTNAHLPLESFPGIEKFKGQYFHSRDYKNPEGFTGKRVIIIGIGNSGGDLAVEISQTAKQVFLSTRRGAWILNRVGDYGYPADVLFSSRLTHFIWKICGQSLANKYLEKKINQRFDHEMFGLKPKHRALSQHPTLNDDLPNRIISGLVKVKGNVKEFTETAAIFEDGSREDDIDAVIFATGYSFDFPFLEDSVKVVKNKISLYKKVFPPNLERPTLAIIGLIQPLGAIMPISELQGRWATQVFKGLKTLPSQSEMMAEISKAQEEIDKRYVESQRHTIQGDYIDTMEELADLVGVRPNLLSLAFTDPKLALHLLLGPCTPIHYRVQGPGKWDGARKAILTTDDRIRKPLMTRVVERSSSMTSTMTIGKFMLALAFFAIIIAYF

[3] = molecular target: T1, Flavin-containing monooxygenase 5; test: Drug metabolism assessed as human recombinant FMO5-mediated compound formation from 50 uM E7016 in presence of human liver cytosolic fractions after 60 mins by LC-MS/MS method; format: ADME, tissue-based; conditions: recombinant enzyme, 1 h
Hepatocyte [4] = test: Drug level in human hepatocytes treated with 50 uM E7016 after 120 mins in presence of NADPH by LC-MS/MS method; format: ADME, cell-based; conditions: 2 h
Hepatocyte [5] = test: Drug level in rat hepatocytes treated with 50 uM E7016 after 120 mins in presence of NADPH by LC-MS/MS method; format: ADME, cell-based; conditions: 2 h
[6] = Drug level in dog liver S9 fraction treated with 50 uM E7016 after 60 mins in presence of NADP+ by LC-MS/MS method; format: ADME, subcellular, Canis lupus familiaris; conditions: s9, 1 h
[7] = molecular target: T1, Flavin-containing monooxygenase 5; test: Drug level assessed as human recombinant FMO5-mediated compound formation from 10 uM ER-879819 in presence NADPH after 60 mins by LC-MS/MS method; format: ADME; conditions: recombinant enzyme, 1 h
Liver microsome [8] = test: Drug level in dog liver microsomes treated with 10 uM ER-879819 after 60 mins in presence of NADH by LC-MS/MS method; format: ADME, Canis lupus familiaris; conditions: 1 h
[9] = Drug level in human liver S9 fraction treated with 50 uM E7016 after 60 mins in presence of NAD+ by LC-MS/MS method; format: ADME, subcellular; conditions: s9, 1 h
[10] = molecular target: T1, Flavin-containing monooxygenase 5; test: Drug level assessed as human recombinant FMO5-mediated compound formation from 10 uM ER-879819 in presence NADH after 60 mins by LC-MS/MS method; format: ADME; conditions: recombinant enzyme, 1 h
[11] = Drug level in human liver S9 fraction treated with 50 uM E7016 after 60 mins in presence of NADP+ by LC-MS/MS method; format: ADME, subcellular; conditions: s9, 1 h
[12] = Drug level in dog hepatocytes treated with 50 uM E7016 after 120 mins in presence of NADPH by LC-MS/MS method; format: ADME, cell-based, Canis lupus familiaris, Hepatocyte; conditions: 2 h
[13] = molecular target: T1, Flavin-containing monooxygenase 5; test: Drug metabolism assessed as human recombinant FMO5-mediated compound formation from 50 uM E7016 in presence of rat liver cytosolic fractions after 60 mins by LC-MS/MS method; format: ADME, tissue-based; conditions: recombinant enzyme, 1 h
Liver microsome [14] = test: Drug level in human liver microsomes treated with 10 uM ER-879819 after 60 mins in presence of NADH by LC-MS/MS method; format: ADME; conditions: 1 h
[15] = Drug level in dog liver S9 fraction treated with 50 uM E7016 after 60 mins in presence of NAD+ by LC-MS/MS method; format: ADME, subcellular, Canis lupus familiaris; conditions: s9, 1 h

Retention_time [1] [min]	Drug metabolism [2]	Drug metabolism [3]	Drug metabolism (Hepatocyte [4])	Drug metabolism (Hepatocyte [5])	Drug metabolism [6]	Drug metabolism [7]	Drug metabolism (Liver microsome [8])	Drug metabolism [9]	Drug metabolism [10]	Drug metabolism [11]	Drug metabolism [12]	Drug metabolism [13]	Drug metabolism (Liver microsome [14])	Drug metabolism [15]	Compound
10.7															Cc1ccc2c(c1)-c1n[nH]c(=O)c3cccc(c13)O2
	metabolite_detected	metabolite_detected	metabolite_detected	metabolite_detected	metabolite_detected	metabolite_detected	metabolite_detected	metabolite_detected	metabolite_detected	metabolite_detected	metabolite_detected	metabolite_detected	metabolite_detected	metabolite_detected	O=C(O)CCN(CCO)Cc1ccc2c(c1)-c1n[nH]c(=O)c3cccc(c13)O2
